Experimental data reported in patent US20250195528A1, “DOSE REGIMEN OF VICASINABIN” (Hoffmann-La Roche Inc., priority 2022, published 2025).
“Also recorded” adds a separate entry of the source. Like-named read-outs stand apart in the source and are kept apart here.

Tests used:
[1] = system: STZ-induced Type 1 diabetes; assay type: in vivo; settings: rat, 10 mg/kg
Procedure: Pharmacological studies were performed in vitro and in vivo to investigate the potency, selectivity and activity of RO6868847. Pharmacological effects were determined in vivo in two different diabetic animal models which include the streptozotocin (STZ)-induced rat Type 1 diabetes and genetic Type 2 diabetes mouse models as well as in two acute models with acute inflammatory stimulus (LPS-injections) or laser injury (CNV). Additional in vitro pharmacology studies were performed to explore the pharmacological effect of RO6868847 and the suitability of the assays as biomarkers of target engagement and pharmacodynamic effect (PD) in human whole blood obtained from either healthy volunteers or diabetic patients.
The diversity of the tested models (including acute challenge versus disease-modifying models) and the absence of a recommended nonclinical DME/DR model with proven clinical translatability presents a challenge for the estimation of pharmacologically active exposure in humans.
Exposure was derived from satellite animals or extrapolated from previous PK or PD studies in the same species. […]

[2] = system: 15-lipoxygenase, MAGL, diacylglycerol lipase, or FAAH enzymes; experiment: Functional cellular assays, enzymes of the endocannabinoid pathway; assay type: cell-based; settings: 10 μM in mouse
[3] = Study BP40387 Part 2 (FE) food effect on pharmacokinetics; assay type: in vivo, human; settings: for Tmax: both sexes, human, plasma, oral, 100 mg single dose, read-out: Median Tmax
Text: In Part 2 (FE) of Study BP40387, consistent with delayed gastric emptying due to an extended meal, the time to reach peak plasma concentration (Tmax) was slightly longer following dosing after a high fat, high calorie breakfast. […] Single Dose Urine Pharmacokinetics

[4] = target: T1, human CB2 (Homo sapiens, UniProt P34972); experiment: Radioligand binding to CB2, CHO cells expressing recombinant CB2
T1 construct: expressed in transfected cells; host or cells: CHO cells

[5] = Study BP40387 Part 1 (SAD) pharmacokinetics, healthy participants; assay type: in vivo, human; settings: single and multiple dose, on average
[6] = target: T2, CB2 (Rattus norvegicus, UniProt Q9QZN9); experiment: In vitro rat Ki; assay type: binding
T2 sequence (Q9QZN9 1-360): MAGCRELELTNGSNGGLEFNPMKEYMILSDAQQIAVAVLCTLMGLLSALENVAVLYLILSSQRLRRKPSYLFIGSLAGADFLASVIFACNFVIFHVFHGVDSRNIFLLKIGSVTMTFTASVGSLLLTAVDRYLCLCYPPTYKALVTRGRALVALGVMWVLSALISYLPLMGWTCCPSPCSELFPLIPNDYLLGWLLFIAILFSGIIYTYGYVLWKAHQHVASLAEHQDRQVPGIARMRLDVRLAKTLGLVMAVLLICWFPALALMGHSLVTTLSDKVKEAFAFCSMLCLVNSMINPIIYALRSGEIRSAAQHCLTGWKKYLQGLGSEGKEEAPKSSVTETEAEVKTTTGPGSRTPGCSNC
Text: FIG. 10 illustrates Disease Markers versus Free Exposure of the Active S-Epimer RO6868847 in Several Animal Models. […] Disease markers (hyperfluorescence area in mm^2, OD retina-plasma fluorescein ratio, number of leukocytes per mm^2 or total length of processes in mm) as a percent of the control value (100% represents the vehicle-treated diabetic control and 0% for vehicle-treated healthy control) in different in vivo PD models as a function of the free AUC0-24 of the active S-epimer RO6868847.
Based on this integrated assessment, the pharmacologically active exposure range observed in rats spans 2 logs, with an upper bound (unbound AUC0-24 [S-epimer]=546 ng·hr/mL) corresponding to the full effect at 10 mg/kg in a rat STZ-induced Type 1 diabetes model and the lower bound (unbound AUC0-24 [S-epimer]=2.8 ng·hr/mL) corresponding to 50% decrease in disease marker (hypoerfluorescence area) in a laser-induced NV rat model.

[7] = target: T3, cynomolgus monkey CB2 (Macaca fascicularis, UniProt G7NVV5); experiment: Forskolin-stimulated cAMP inhibition in stably transfected CHO cells; assay type: cell-based
Text: Inhibition of cAMP accumulation in Chinese hamster ovary cells stably expressing recombinant CB2 was used to determine the functional potency of RO6868847 for different CB2 species and the selectivity over the closely related CB1. […] Table 4 summarizes the potency from different CB2 species.

[8] = system: LPS-induced cytokine production in whole blood; experiment: Ex vivo LPS whole blood challenge in participants of Study BP40387 (MAD); design: species or system human
Procedure: In addition to the CB2R-TE whole blood assay, an in vitro LPS whole blood challenge assay was applied using blood from healthy participants that received multiple 300 mg doses of RO6868847 6 in the MAD study.
In example 2, target engagement of RO6868847 was assessed on circulating B-cells from whole blood samples utilizing a newly developed exploratory flow cytometry assay to monitor RO6868847-induced CB2 receptor internalization on B-cells. […] Upon treatment discontinuation CB2 receptor surface expression returned to baseline approximately within 1 week. Target engagement appeared to reach a plateau at doses of 100 mg RO6868847 with only marginal increases at higher doses of RO6868847. In example 2, pro-inflammatory cytokine production was induced by ex vivo stimulation with LPS in freshly obtained whole blood samples, to measure downstream markers of RO6868847-mediated CB2 receptor internalization and explore its pharmacological profile. Serum levels of TNF-α, G-CSF, IL-1β, and […], of participants in Study BP40387 were assessed to investigate the changes of these cytokines in the presence of repeated dose administration of up to 300 mg RO6868847 once-daily for 14 days. […] It should be noted that the IL1-β analysis was negatively affected by a substantial proportion of baseline data, not being reportable (see FIG. 8), especially at the highest tested doses of 300 mg of RO6868847. Substantial variability in these measurements was observed. However, this was expected and no dedicated predefined statistical analysis was performed since cohort sizes were small for this exploratory assessment.

[9] = target: T3, cynomolgus monkey CB2; experiment: Radioligand binding to CB2, CHO cells
[10] = steady-state, up to 300 mg once-daily for 14 days

T3 sequence (G7NVV5 1-360): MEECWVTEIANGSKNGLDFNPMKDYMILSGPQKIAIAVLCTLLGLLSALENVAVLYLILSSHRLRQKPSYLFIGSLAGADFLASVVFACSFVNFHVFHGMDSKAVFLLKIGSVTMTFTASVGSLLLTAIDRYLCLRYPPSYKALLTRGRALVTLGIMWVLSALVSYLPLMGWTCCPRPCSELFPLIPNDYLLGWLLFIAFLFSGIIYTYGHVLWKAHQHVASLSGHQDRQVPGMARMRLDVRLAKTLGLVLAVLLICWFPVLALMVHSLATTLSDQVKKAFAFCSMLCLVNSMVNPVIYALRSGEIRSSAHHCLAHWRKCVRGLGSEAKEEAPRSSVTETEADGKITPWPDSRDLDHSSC
T1 sequence (P34972 whole entry): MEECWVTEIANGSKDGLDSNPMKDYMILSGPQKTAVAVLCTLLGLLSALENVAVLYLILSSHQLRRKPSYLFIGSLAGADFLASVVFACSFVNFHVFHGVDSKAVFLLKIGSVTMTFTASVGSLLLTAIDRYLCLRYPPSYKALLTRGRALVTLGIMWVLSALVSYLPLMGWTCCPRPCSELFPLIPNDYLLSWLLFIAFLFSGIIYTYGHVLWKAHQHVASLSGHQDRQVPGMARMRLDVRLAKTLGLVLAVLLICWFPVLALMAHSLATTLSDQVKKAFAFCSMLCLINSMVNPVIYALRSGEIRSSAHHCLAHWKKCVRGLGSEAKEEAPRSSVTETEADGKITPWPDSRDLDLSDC

## Cn1nnnc1Cn1nnc2c(N3CC[C@H](O)C3)nc(C(C)(C)C)nc21 [RO6868847, (3S)-1-[5-tert-butyl-3-[(1-methyltetrazol-5-yl)methyl]triazolo[4,5-d]pyrimidin-7-yl]pyrrolidin-3-ol]
[1]
  effect on disease marker: full effect
[1]; in vivo
  unbound AUC0-24 [S-epimer], upper bound of pharmacologically active exposure: 546 ng·hr/mL
[2]
  activity at endocannabinoid pathway enzymes: no activity
[3]; 100 mg, fed vs fasted
  effect of food on AUCInf: increased only marginally
  effect of food on Cmax: remained unaffected by food
[3]; 100 mg, fasted state
  Tmax: 3 h
[3]; 100 mg, fed state (high fat, high calorie breakfast)
  Tmax: 4 h
[3]; overall
  effect of food on the pharmacokinetics: no relevant effect
[4]
  IC50: 0.117 ± 0.0263 µM
  Ki: 0.0513 µM
[5]
  Renal excretion, share of the dose administered: less than 5%
[6]; rat
  Ki: 33.3 nM
  unbound AUC0-24 at in vitro rat Ki as share of upper bound of active exposure: 52%
[6]; rat Ki x 24
  free AUC0-24 extrapolated from rat Ki: 0.286 µg·h/mL
[6]; rat, converted from nM
  Ki: 33.5 nM
[7]; CHO cells
  IC50: 0.00106 ± 8e-05 µM
[7]; CHO, normalized to 10 μM CP55′940
  Emax: 94.6%
[8]; multiple doses, MAD
  LPS-induced cytokine release / pro-inflammatory cytokine production: appeared to attenuate; also recorded: attenuation of LPS-induced cytokine release was observed only at the higher end of the dose range
[8]; [10]
  IFN-γ level after ex vivo LPS vs baseline: did not show any detectable trend
  TNF-α, G-CSF and IL1-β levels after ex vivo LPS vs baseline: concentration-dependent effect
[9]
  IC50: 0.103 ± 0.0172 µM
[9]; read-out: Ki ± SE
  Ki: 0.0668 µM
